Source: patent publication US6677368B2, “4-aryl substituted indolinones” (Sugen, Inc., priority 2000, dated 2004)

What was measured:
Assay type in all cases: biochemical
FGFR3 = FGFR3 (Homo sapiens, UniProt P22607); assay: FGFR3 kinase inhibition
FGFR1 = FGFR1 (Homo sapiens, UniProt P11362); assay: FGFR1 bioassay (ELISA, in vitro kinase activity); conditions: purified GST-FGFR1, poly(Glu-Tyr) substrate
Description: This assay is used to measure the in vitro kinase activity of FGF1-R in an ELISA assay.
1. Costar 96-well ELISA plates (Corning Catalog #3369).
2. Poly(Glu-Tyr) (Sigma Catalog #P0275).
4. 50 mM Hepes Buffer Solution.
5. Blocking Buffer (5% BSA/PBS).
6. Purified GST-FGFR1 (SUGEN, Inc.)
7. Kinase Dilution Buffer. Mix 500 μl 1M Hepes (GIBCO), 20 μl 5% BSA/PBS, 10 μl 100 mM sodium orthovanadate and 50 μl 5M NaCl.
9. ATP/MnCl2 phosphorylation mix: mix 20 μL ATP, 400 μL 1M MnCl2 and 9.56 ml dH2O.
10. NUNC 96-well V bottom polypropylene plates (Applied Scientific Catalog #AS-72092).
12. 0.05% TBST Add 500 μL TWEEN to 1 liter TBS.
13. Rabbit polyclonal anti-phosphotyrosine serum (SUGEN, Inc.).
14. Goat anti-rabbit IgG peroxidase conjugate (Biosource, Catalog #ALI0404).
1. Coat Costar 96 well ELISA plates with 1 μg per well Poly(Glu-Tyr) in 100 μl PBS. Store overnight at 4° C.
2. Wash coated plates once with PBS.
3. Add 150 μL of 5%BSA/PBS Blocking Buffer to each well. Incubate, with shaking, for 1 hr at room temperature.
4. Wash plate 2× with PBS, then once with 50 mM Hepes. Pat plates on a paper towel to remove excess liquid and bubbles.
5. Add 25 μL of 0.4 mM test compound in 4% DMSO or 4% DMSO alone (controls) to plate.
6. Dilute purified GST-FGFR1 in Kinase Dilution Buffer (5 ng kinase/50 μl KDB/well).
7. Add 50 μL of diluted kinase to each well.
8. Start kinase reaction by adding 25 μl/well of freshly prepared ATP/Mn++ (0.4 ml 1M MnCl2, 40 μL 10 mM ATP, 9.56 ml dH2O), freshly prepared).
9. Stop reaction with 25 μL of 0.5M EDTA.
10. Wash plate 4× with fresh TBST.
11. Make up Antibody Dilution Buffer: For 50 ml, mix 5 ml of 5% BSA, 250 μl of 5% milk and 50 μl of 100 mM sodium vanadate, bring to final volume with 0.05% TBST.
12. Add 100 μl per well of anti-phosphotyrosine (1:10000 dilution in ADB). Incubate, with shaking for 1 hr. at room temperature.
14. Add 100 μl per well of Biosource Goat anti-rabbit IgG peroxidase conjugate (1:6000 dilution in ADB). Incubate, with shaking for 1 hr. at room temperature.
15. Wash as in step 10 and then with PBS to remove bubbles and excess TWEEN.
16. Add 100 μl of ABTS/H2O2 solution to each well.
17. Incubate, with shaking, for 10 to 20 minutes. Remove any bubbles.
18. Read assay on Dynatech MR7000 ELISA reader: test filter at 410 nM, reference filter at 630 nM.

MET = molecular target: T1, MET (Homo sapiens, UniProt P08581); assay: MET transphosphorylation assay; conditions: GST fusion protein containing the Met kinase domain, poly(glu-tyr) substrate
T1 construct: Purified GST fusion protein containing the Met kinase domain, SUGEN, Inc
Description: MET TRANSPHOSPHORYLATION ASSAY
This assay is used to measure phosphotyrosine levels on a poly(glutamic acid:tyrosine, 4:1) substrate as a means for identifying agonists/antagonists of met transphosphorylation of the substrate.
1. Corning 96-well ELISA plates, Corning Catalog #25805-96.
2. Poly(glu-tyr), 4:1, Sigma, Cat. No; P 0275.
5. Blocking Buffer: Dissolve 25 g Bovine Serum Albumin, Sigma Cat. No A-7888, in 500 ml PBS, filter through a […] filter.
6. Purified GST fusion protein containing the Met kinase domain, SUGEN, Inc.
8. 10% aqueous (MilliQue H2O) DMSO.
9. 10 mM aqueous (dH2O) Adenosine-5′-triphosphate, Sigma Cat. No. A-5394.
10. 2×Kinase Dilution Buffer: for 100 ml, mix 10 mL 1M HEPES at pH 7.5 with 0.4 mL 5% BSA/PBS, 0.2 mL 0.1 M sodium orthovanadate and 1 mL 5M sodium chloride in 88.4 mL dH2O.
11. 4×ATP Reaction Mixture: for 10 mL, mix 0.4 mL 1 M manganese chloride and 0.02 mL 0.1 M ATP in 9.56 mL dH2O.
12. 4×Negative Controls Mixture: for 10 mL, mix 0.4 mL 1 M manganese chloride in 9.6 mL dH2O.
13. NUNC 96-well V bottom polypropylene plates, Applied Scientific Catalog #S-72092
15. Antibody Dilution Buffer: for 100 mL, mix 10 mL 5% BSA/PBS, 0.5 mL 5% Carnation® Instant Milk in PBS and 0.1 mL 0.1 M sodium orthovanadate in 88.4 mL TBST.
16. Rabbit polyclonal antophosphotyrosine antibody, SUGEN, Inc.
17. Goat anti-rabbit horseradish peroxidase conjugated antibody, Biosource, Inc.
18. ABTS Solution: for 1 L, mix 19.21 g citric acid, 35.49 g Na2HPO4 and 500 mg ABTS with sufficient dH2O to make 1 L.
19. ABTS/H2O2: mix 15 mL ABST solution with 2μL H2O2 five minutes before use.
1. Coat ELISA plates with 2 μg Poly(Glu-Tyr) in 100 μL PBS, hold overnight at 4° C.
2. Block plate with 150 μL of 5% BSA/PBS for 60 min.
3. Wash plate twice with PBS then once with 50 mM Hepes buffer pH 7.4.
4. Add 50 μl of the diluted kinase to all wells. (Purified kinase is diluted with Kinase Dilution Buffer. Final concentration should be 10 ng/well.)
5. Add 25 μL of the test compound (in 4% DMSO) or DMSO alone (4% in dH2O) for controls to plate.
6. Incubate the kinase/compound mixture for 15 minutes.
7. Add 25 μL of 40 mM MnCl2 to the negative control wells.
8. Add 25 μL ATP/MnCl2 mixture to the all other wells (except the negative controls). Incubate for 5 min.
9. Add 25 μL 500 mM EDTA to stop reaction.
10. Wash plate 3× with TBST.
11. Add 100 μL rabbit polyclonal anti-Ptyr diluted 1:10,000 in Antibody Dilution Buffer to each well. Incubate, with shaking, at room temperature for one hour.
12. Wash plate 3× with TBST.
13. Dilute Biosource HRP conjugated anti-rabbit antibody 1:6,000 in Antibody Dilution buffer. Add 100 μL per well and incubate at room temperature, with shaking, for one hour.
14. Wash plate 1× with PBS.
15. Add 100 μl of ABTS/H2O2 solution to each well.
16. If necessary, stop the development reaction with the addition of 100 μl of 0.2M HCl per well.
17. Read plate on Dynatech MR7000 ELISA reader with the test filter at 410 nM and the reference filter at 630 nM.

FGFR3, sequence (P22607 23-806, species assumed): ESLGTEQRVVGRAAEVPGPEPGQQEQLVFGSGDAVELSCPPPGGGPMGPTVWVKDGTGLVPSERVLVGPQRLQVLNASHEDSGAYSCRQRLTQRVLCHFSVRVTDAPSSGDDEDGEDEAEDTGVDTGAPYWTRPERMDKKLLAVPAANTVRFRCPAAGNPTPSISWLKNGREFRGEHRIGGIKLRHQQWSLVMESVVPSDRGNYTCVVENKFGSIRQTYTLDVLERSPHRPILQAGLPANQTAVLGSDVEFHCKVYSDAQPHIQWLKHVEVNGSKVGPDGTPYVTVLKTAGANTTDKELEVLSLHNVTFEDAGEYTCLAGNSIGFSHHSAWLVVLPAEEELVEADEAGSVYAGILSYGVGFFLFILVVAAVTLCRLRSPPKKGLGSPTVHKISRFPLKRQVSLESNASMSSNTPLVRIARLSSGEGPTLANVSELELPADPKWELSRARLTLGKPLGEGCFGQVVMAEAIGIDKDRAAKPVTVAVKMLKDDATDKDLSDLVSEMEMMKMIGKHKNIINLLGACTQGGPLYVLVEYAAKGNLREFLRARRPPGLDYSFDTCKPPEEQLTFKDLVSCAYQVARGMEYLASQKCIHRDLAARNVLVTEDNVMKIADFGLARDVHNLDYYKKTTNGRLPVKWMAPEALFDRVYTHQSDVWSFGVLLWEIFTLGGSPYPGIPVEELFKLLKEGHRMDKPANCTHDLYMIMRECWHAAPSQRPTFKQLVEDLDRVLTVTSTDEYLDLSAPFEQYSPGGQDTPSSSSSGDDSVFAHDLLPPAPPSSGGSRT
FGFR1, sequence (P11362 22-822, species assumed): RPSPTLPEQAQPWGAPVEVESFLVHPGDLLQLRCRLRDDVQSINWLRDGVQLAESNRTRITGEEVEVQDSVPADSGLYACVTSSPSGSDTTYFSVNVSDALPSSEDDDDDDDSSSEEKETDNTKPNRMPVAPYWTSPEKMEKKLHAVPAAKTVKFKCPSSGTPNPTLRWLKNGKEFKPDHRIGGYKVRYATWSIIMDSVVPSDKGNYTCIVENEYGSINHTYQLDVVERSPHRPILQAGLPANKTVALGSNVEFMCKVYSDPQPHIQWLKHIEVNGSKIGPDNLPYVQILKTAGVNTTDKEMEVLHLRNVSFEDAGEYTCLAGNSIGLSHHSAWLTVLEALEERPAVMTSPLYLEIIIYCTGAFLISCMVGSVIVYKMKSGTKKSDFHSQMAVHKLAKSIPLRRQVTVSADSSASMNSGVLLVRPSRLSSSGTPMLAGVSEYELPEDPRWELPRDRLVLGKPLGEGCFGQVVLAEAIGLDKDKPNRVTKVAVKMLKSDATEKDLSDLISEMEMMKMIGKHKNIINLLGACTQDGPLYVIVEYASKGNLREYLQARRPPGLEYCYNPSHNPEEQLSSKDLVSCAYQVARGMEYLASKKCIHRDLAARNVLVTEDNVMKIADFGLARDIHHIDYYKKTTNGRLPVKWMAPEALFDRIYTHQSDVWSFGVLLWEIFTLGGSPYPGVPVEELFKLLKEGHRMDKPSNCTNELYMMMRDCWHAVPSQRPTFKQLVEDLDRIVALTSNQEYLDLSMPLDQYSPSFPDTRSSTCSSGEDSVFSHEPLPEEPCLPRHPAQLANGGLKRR
T1 sequence (P08581 1078-1345 limits assumed): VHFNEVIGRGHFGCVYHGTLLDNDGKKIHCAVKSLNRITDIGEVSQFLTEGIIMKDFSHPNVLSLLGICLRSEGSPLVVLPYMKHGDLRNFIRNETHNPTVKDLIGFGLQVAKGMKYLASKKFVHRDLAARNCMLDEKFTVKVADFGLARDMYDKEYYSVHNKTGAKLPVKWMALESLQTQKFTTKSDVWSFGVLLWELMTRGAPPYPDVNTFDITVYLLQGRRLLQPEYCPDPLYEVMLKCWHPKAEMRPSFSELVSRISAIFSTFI

## Cc1cc(C(=O)N2C[C@@H](C)N[C@@H](C)C2)c(/C=C2\C(=O)Nc3cccc(-c4cccc(Cl)c4)c32)[nH]1 [Example 35, 4-(3-Chloro-phenyl)-3-[3-((cis)-3,5-dimethyl-piperazine-1-carbonyl)-5-methyl-1H-pyrrol-2-ylmethylene]-1,3-dihydro-indol-2-one]
FGFR3
  IC50: 1.99 µM
FGFR1
  IC50: 0.22 µM
MET
  IC50: 0.34 µM

## CCN(CC)CCNC(=O)c1c(C)[nH]c(/C=C2\C(=O)Nc3cccc(-c4cccc(Br)c4)c32)c1C [Example 63, 5-[4-(3-Bromo-phenyl)-2-oxo-1,2-dihydro-indol-3-ylidenemethyl]-2,4-dimethyl-1H-pyrrole-3-carboxylic Acid (2-Diethylamino-ethyl)-amide]
FGFR3
  IC50: 0.094 µM
FGFR1
  IC50: 0.24 µM
MET
  IC50: 0.043 µM

## CCN(CC)CCNC(=O)c1c(C)[nH]c(/C=C2\C(=O)Nc3cccc(-c4cccc(OC)c4)c32)c1C [Example 46, 5-[4-(3-Methoxy-phenyl)-2-oxo-1,2-dihydro-indol-3-ylidenemethyl]-2,4-dimethyl-1H-pyrrole-3-carboxylic Acid (2-Diethylamino-ethyl)-amide]
FGFR3
  IC50: 0.009 µM
FGFR1
  IC50: 0.022 µM
MET
  IC50: 0.12 µM

## Cc1[nH]c(/C=C2\C(=O)Nc3cccc(-c4ccc(Br)cc4)c32)c(C)c1C(=O)N1C[C@@H](C)N[C@@H](C)C1 [Example 57, 4-(4-Bromo-phenyl)-3-[4-[(cis)-3,5-dimethyl-piperazine-1-carbonyl)-3,5-dimethyl-1H-pyrrol-2-ylmethylene]-1,3-dihydro-indol-2-one]
FGFR3
  IC50: 0.087 µM
FGFR1
  IC50: 0.26 µM
MET
  IC50: 0.42 µM

## COc1ccc(-c2cccc3c2/C(=C/c2[nH]c(C)cc2C(=O)NCCN2CCCC2)C(=O)N3)cc1 [Example 41, 2-[4-(4-Methoxy-phenyl)-2-oxo-1,2-dihydro-indol-3-ylidenemethyl]-5-methyl-1H-pyrrole-3-carboxylic Acid (2-Pyrrolidin-1-yl-ethyl)-amide]
FGFR3
  IC50: 0.79 µM
FGFR1
  IC50: 0.56 µM
MET
  IC50: 0.32 µM

## Cc1[nH]c(/C=C2\C(=O)Nc3cccc(-c4ccc(Br)cc4)c32)c(C)c1C(=O)N1CCN(C)CC1 [Example 53]
FGFR3
  IC50: 0.68 µM
FGFR1
  IC50: 1.15 µM
MET
  IC50: 0.29 µM

## Cc1cc(C(=O)N2C[C@@H](C)N[C@@H](C)C2)c(/C=C2\C(=O)Nc3cccc(-c4ccc(Cl)cc4)c32)[nH]1 [Example 27]
FGFR3
  IC50: 0.61 µM
FGFR1
  IC50: 0.63 µM
MET
  IC50: 0.15 µM

## Cc1[nH]c(/C=C2\C(=O)Nc3cccc(-c4cccc(F)c4)c32)c(C)c1C(=O)NCCn1ccnn1 [Example 15, 5-[4-(3-Fluoro-phenyl)-2-oxo-1,2-dihydro-indol-3-ylidenemethyl]-2,4-dimethyl-1H-pyrrole-3-carboxylic Acid (2-[1,2,3]Triazol-1-yl-ethyl)-amide]
FGFR3
  IC50: 0.072 µM
FGFR1
  IC50: 2.07 µM
MET
  IC50: 0.37 µM

## Cc1cc(C(=O)NCCn2ccnn2)c(/C=C2\C(=O)Nc3cccc(-c4cccc(Cl)c4)c32)[nH]1 [Example 34, 2-[4-(3-Chloro-phenyl)-2-oxo-1,2-dihydro-indol-3-ylidenemethyl]-5-methyl-1H-pyrrole-3-carboxylic Acid (2-[1,2,3]Triazol-1-yl-ethyl)-amide]
FGFR3
  IC50: 0.94 µM
FGFR1
  IC50: 0.5 µM
MET
  IC50: 0.13 µM

## COc1ccc(-c2cccc3c2/C(=C/c2[nH]c(C)c(C(=O)NCCN4CCCC4)c2C)C(=O)N3)cc1 [Example 38, 5-[4-(4-Methoxy-phenyl)-2-oxo-1,2-dihydro-indol-3-ylidenemethyl]-2,4-dimethyl-1H-pyrrole-3-carboxylic Acid (2-Pyrrolidin-1-yl-ethyl)-amide]
FGFR3
  IC50: 0.046 µM
FGFR1
  IC50: 0.08 µM
MET
  IC50: 0.11 µM

## Cc1cc(C(=O)NCCN2CCCC2)c(/C=C2\C(=O)Nc3cccc(-c4ccc(Br)cc4)c32)[nH]1 [Example 58, 2-[4-(4-Bromo-phenyl)-2-oxo-1,2-dihydro-indol-3-ylidenemethyl]-5-methyl-1H-pyrrole-3-carboxylic Acid (2-Pyrrolidin-1-yl-ethyl)-amide]
FGFR3
  IC50: 0.22 µM
FGFR1
  IC50: 0.25 µM
MET
  IC50: 0.073 µM

## COc1cccc(-c2cccc3c2/C(=C/c2[nH]c(C)c(C(=O)NCCn4ccnn4)c2C)C(=O)N3)c1 [Example 48, 5-[4-(3-Methoxy-phenyl)-2-oxo-1,2-dihydro-indol-3-ylidenemethyl]-2,4-dimethyl-1H-pyrrole-3-carboxylic Acid (2-[1,2,3]Triazol-1-yl-ethyl)-amide]
FGFR3
  IC50: 0.19 µM
FGFR1
  IC50: 0.6 µM
MET
  IC50: 1.06 µM

## COc1cccc(-c2cccc3c2/C(=C/c2[nH]c(C)c(C(=O)NCCN(C(C)C)C(C)C)c2C)C(=O)N3)c1 [Example 52, 5-[4-(3-Methoxy-phenyl)-2-oxo-1,2-dihydro-indol-3-ylidenemethyl]-2,4-dimethyl-1H-pyrrole-3-carboxylic Acid (2-Diisopropylamino-ethyl)-amide]
FGFR3
  IC50: < 0.0091 µM
FGFR1
  IC50: 0.035 µM
MET
  IC50: 0.092 µM

## CCN(CC)CCNC(=O)c1c(C)[nH]c(/C=C2\C(=O)Nc3cccc(-c4cccc(Cl)c4)c32)c1C [Example 29, 5-[4-(3-Chloro-phenyl)-2-oxo-1,2-dihydro-indol-3-ylidenemethyl]-2,4-dimethyl-1H-pyrrole-3-carboxylic Acid (2-Diethylamino-ethyl)-amide]
FGFR3
  IC50: 0.32 µM
FGFR1
  IC50: 0.029 µM
MET
  IC50: 0.065 µM
